Measured values taken from ChEMBL document CHEMBL3885861, “Open TG-GATES”.

Species on record: Rattus norvegicus
Assay: Open TG-GATES - Regimen: Daily Repeat
Assay type: toxicity, organism-based, Sprague-Dawley
Set-up: regimen Daily Repeat, gender Male, age 6 weeks
Conditions: in vivo, po, 15 mg/kg, route gavage, dose level Low; for APTT / Bas / Eos / Fbg / Hb / Ht / Lym / MCH / MCHC / MCV / Mono / Neu / PT / Plat / RBC / Ret / WBC: tissue Blood; for KIDNEY_L / KIDNEY_R / KIDNEY_TOTAL: tissue Kidney; for LIVER: tissue Liver; for A/G / ALP / ALT / AST / BUN / CRE / Ca / Cl / DBIL / GLC / IP / K / LDH / Na / PL / RALB / TBIL / TC / TG / TP / gamma-GTP: tissue Plasma

O=c1ccc2ccccc2o1 [COUMARIN]
TERMINAL_BW (72 h, time 3 day): 198.3 g
APTT (72 h, time 3 day): 15.1 s
Bas (72 h, time 3 day): 0%
Eos (72 h, time 3 day): 1%
Fbg (72 h, time 3 day): 192.4 mg/dL
Hb (72 h, time 3 day): 13.1 g/dL
Ht (72 h, time 3 day): 39.5%
Lym (72 h, time 3 day): 72.2%
MCH (72 h, time 3 day): 21.5 pg
MCHC (72 h, time 3 day): 33.2%
MCV (72 h, time 3 day): 64.8 fL
Mono (72 h, time 3 day): 9.8%
Neu (72 h, time 3 day): 17%
PT (72 h, time 3 day): 11.6 s
Plat (72 h, time 3 day): 110.7 x10_4/uL
RBC (72 h, time 3 day): 608.6 x10_4/ul
Ret (72 h, time 3 day): 7.9%
WBC (72 h, time 3 day): 108.8 x10_2/uL
KIDNEY_L (72 h, time 3 day): 0.9 g
KIDNEY_R (72 h, time 3 day): 0.9 g
KIDNEY_TOTAL (72 h, time 3 day): 1.8 g
LIVER (72 h, time 3 day): 10.1 g
A/G (72 h, time 3 day): 2.1
ALP (72 h, time 3 day): 921.6 IU/L
ALT (72 h, time 3 day): 40.6 IU/L
AST (72 h, time 3 day): 68 IU/L
BUN (72 h, time 3 day): 14.8 mg/dL
CRE (72 h, time 3 day): 0.5 mg/dL
Ca (72 h, time 3 day): 10.8 mg/dL
Cl (72 h, time 3 day): 104.6 meq/L
DBIL (72 h, time 3 day): 0.02 mg/dL
GLC (72 h, time 3 day): 190 mg/dL
IP (72 h, time 3 day): 8.3 mg/dL
K (72 h, time 3 day): 4.9 meq/L
LDH (72 h, time 3 day): 78.2 IU/L
Na (72 h, time 3 day): 138.8 meq/L
PL (72 h, time 3 day): 150 mg/dL
RALB (72 h, time 3 day): 3.7 g/dL
TBIL (72 h, time 3 day): 0.3 mg/dL
TC (72 h, time 3 day): 89.2 mg/dL
TG (72 h, time 3 day): 68 mg/dL
TP (72 h, time 3 day): 5.5 g/dL
gamma-GTP (72 h, time 3 day): 1.6 IU/L
TERMINAL_BW ([…], time 7 day): 228.4 g
TERMINAL_BW ([…], time 14 day): 282.9 g
TERMINAL_BW ([…], time 28 day): 347.7 g
APTT ([…], time 7 day): 16 s
Bas ([…], time 7 day): 0%
Eos ([…], time 7 day): 1%
Fbg ([…], time 7 day): 223.8 mg/dL
Hb ([…], time 7 day): 13.9 g/dL
Ht ([…], time 7 day): 42%
Lym ([…], time 7 day): 81.6%
MCH ([…], time 7 day): 21.3 pg
MCHC ([…], time 7 day): 33%
MCV ([…], time 7 day): 64.4 fL
Mono ([…], time 7 day): 5.2%
Neu ([…], time 7 day): 12.4%
PT ([…], time 7 day): 11.5 s
Plat ([…], time 7 day): 119 x10_4/uL
RBC ([…], time 7 day): 653.2 x10_4/ul
Ret ([…], time 7 day): 6.1%
WBC ([…], time 7 day): 129.6 x10_2/uL
APTT ([…], time 14 day): 17.1 s
Bas ([…], time 14 day): 0%
Eos ([…], time 14 day): 0.6%
Fbg ([…], time 14 day): 225.6 mg/dL
Hb ([…], time 14 day): 13.9 g/dL
Ht ([…], time 14 day): 41.8%
Lym ([…], time 14 day): 82.6%
MCH ([…], time 14 day): 20.4 pg
MCHC ([…], time 14 day): 33.3%
MCV ([…], time 14 day): 61.2 fL
Mono ([…], time 14 day): 4.8%
Neu ([…], time 14 day): 12%
PT ([…], time 14 day): 11.4 s
Plat ([…], time 14 day): 118.1 x10_4/uL
RBC ([…], time 14 day): 683 x10_4/ul
Ret ([…], time 14 day): 4.8%
WBC ([…], time 14 day): 144.2 x10_2/uL
APTT ([…], time 28 day): 18.3 s
Bas ([…], time 28 day): 0%
Eos ([…], time 28 day): 1.2%
Fbg ([…], time 28 day): 217.2 mg/dL
Hb ([…], time 28 day): 14.8 g/dL
Ht ([…], time 28 day): 44%
Lym ([…], time 28 day): 80%
MCH ([…], time 28 day): 19.9 pg
MCHC ([…], time 28 day): 33.5%
MCV ([…], time 28 day): 59.3 fL
Mono ([…], time 28 day): 8%
Neu ([…], time 28 day): 11%
PT ([…], time 28 day): 11.8 s
Plat ([…], time 28 day): 108.5 x10_4/uL
RBC ([…], time 28 day): 743.6 x10_4/ul
Ret ([…], time 28 day): 3%
WBC ([…], time 28 day): 134.3 x10_2/uL
KIDNEY_L ([…], time 7 day): 1 g
KIDNEY_R ([…], time 7 day): 1 g
KIDNEY_TOTAL ([…], time 7 day): 2 g
KIDNEY_L ([…], time 14 day): 1.1 g
KIDNEY_R ([…], time 14 day): 1.1 g
KIDNEY_TOTAL ([…], time 14 day): 2.3 g
KIDNEY_L ([…], time 28 day): 1.3 g
KIDNEY_R ([…], time 28 day): 1.3 g
KIDNEY_TOTAL ([…], time 28 day): 2.6 g
LIVER ([…], time 7 day): 11.6 g
LIVER ([…], time 14 day): 14.2 g
LIVER ([…], time 28 day): 16.4 g
A/G ([…], time 7 day): 2.1
ALP ([…], time 7 day): 1042 IU/L
ALT ([…], time 7 day): 34.2 IU/L
AST ([…], time 7 day): 53.8 IU/L
BUN ([…], time 7 day): 16 mg/dL
CRE ([…], time 7 day): 0.5 mg/dL
Ca ([…], time 7 day): 10.9 mg/dL
Cl ([…], time 7 day): 104.8 meq/L
DBIL ([…], time 7 day): 0.022 mg/dL
GLC ([…], time 7 day): 192 mg/dL
IP ([…], time 7 day): 7.4 mg/dL
K ([…], time 7 day): 5 meq/L
LDH ([…], time 7 day): 85.4 IU/L
Na ([…], time 7 day): 138.4 meq/L
PL ([…], time 7 day): 178.6 mg/dL
RALB ([…], time 7 day): 4 g/dL
TBIL ([…], time 7 day): 0.3 mg/dL
TC ([…], time 7 day): 97.6 mg/dL
TG ([…], time 7 day): 96 mg/dL
TP ([…], time 7 day): 6 g/dL
gamma-GTP ([…], time 7 day): 2 IU/L
A/G ([…], time 14 day): 1.9
ALP ([…], time 14 day): 761.8 IU/L
ALT ([…], time 14 day): 40 IU/L
AST ([…], time 14 day): 59 IU/L
BUN ([…], time 14 day): 18.2 mg/dL
CRE ([…], time 14 day): 0.5 mg/dL
Ca ([…], time 14 day): 10.9 mg/dL
Cl ([…], time 14 day): 106 meq/L
DBIL ([…], time 14 day): 0.042 mg/dL
GLC ([…], time 14 day): 194.6 mg/dL
IP ([…], time 14 day): 6.6 mg/dL
K ([…], time 14 day): 5.1 meq/L
LDH ([…], time 14 day): 87 IU/L
Na ([…], time 14 day): 138.2 meq/L
PL ([…], time 14 day): 171.2 mg/dL
RALB ([…], time 14 day): 4 g/dL
TBIL ([…], time 14 day): 0.3 mg/dL
TC ([…], time 14 day): 84.4 mg/dL
TG ([…], time 14 day): 116.8 mg/dL
TP ([…], time 14 day): 6.1 g/dL
gamma-GTP ([…], time 14 day): 1.2 IU/L
A/G ([…], time 28 day): 1.7
ALP ([…], time 28 day): 681.4 IU/L
ALT ([…], time 28 day): 33.2 IU/L
AST ([…], time 28 day): 52.4 IU/L
BUN ([…], time 28 day): 19.6 mg/dL
CRE ([…], time 28 day): 0.6 mg/dL
Ca ([…], time 28 day): 10.8 mg/dL
Cl ([…], time 28 day): 107.4 meq/L
DBIL ([…], time 28 day): 0.012 mg/dL
GLC ([…], time 28 day): 187.6 mg/dL
IP ([…], time 28 day): 6.7 mg/dL
K ([…], time 28 day): 4.3 meq/L
LDH ([…], time 28 day): 46.4 IU/L
Na ([…], time 28 day): 139.4 meq/L
PL ([…], time 28 day): 145.6 mg/dL
RALB ([…], time 28 day): 4.2 g/dL
TBIL ([…], time 28 day): 0.4 mg/dL
TC ([…], time 28 day): 70.8 mg/dL
TG ([…], time 28 day): 123.8 mg/dL
TP ([…], time 28 day): 6.6 g/dL
gamma-GTP ([…], time 28 day): 1 IU/L
